Assay results as given in patent US6444613B1, “Defoliant” (Hoechst Schering AgrEvo GmbH, priority 1999, dated 2002).

System: cotton plants
Assay: Action as defoliant: leaf abscission of cotton plants after spray application
Format: in vivo

For `O=C(Nc1ccccc1)Nc1cnns1` [Thidiazuron, thidiazuron], the “Effect in % (leaf abscission)” value (Table 1 fluthiacet-methyl trial, dose 25 g/ha, 4 days, cotton 8-10 leaf stage) was 5%, the “Effect in % (leaf abscission)” value (Table 1 fluthiacet-methyl trial, dose 25 g/ha, 5 days, cotton 8-10 leaf stage) was 24% and the “Effect in % (leaf abscission)” value (Table 2 pyraflufen-ethyl trial, dose 25 g/ha, 3 days) was 4%. For the same compound, the “Effect in % (leaf abscission)” value (Table 2 pyraflufen-ethyl trial, dose 25 g/ha, 5 days) was 17%, the “Effect in % (leaf abscission)” value (Table 3.1 carfentrazone-ethyl trial, dose 80 g/ha, 10 days) was 0% and the “Effect in % (leaf abscission)” value (Table 3.1 carfentrazone-ethyl trial, dose 80 g/ha, 20 days) was 8%. The “Effect in % (leaf abscission)” value (Table 3.2 carfentrazone-ethyl trial, dose 25 g/ha, 6 days) was 29% and the “Effect in % (leaf abscission)” value (Table 3.2 carfentrazone-ethyl trial, dose 25 g/ha, 9 days) was 52%.

For `COC(=O)CSc1cc(/N=c2\sc(=O)n3n2CCCC3)c(F)cc1Cl` [Fluthiacet-methyl, fluthiacet-methyl], the “Effect in % (leaf abscission)” value (Table 1 fluthiacet-methyl trial, dose 0.,5 g/ha, 4 days) was 5%, the “Effect in % (leaf abscission)” value (Table 1 fluthiacet-methyl trial, dose 0.,5 g/ha, 5 days) was 14% and the “Effect in % (leaf abscission)” value (Table 1 fluthiacet-methyl trial, dose 0.25 g/ha, 4 days) was 0%. The “Effect in % (leaf abscission)” value (Table 1 fluthiacet-methyl trial, dose 0.25 g/ha, 5 days) was 0%.

`CCOC(=O)C(Cl)Cc1cc(-n2nc(C)n(C(F)F)c2=O)c(F)cc1Cl` (centres unmarked) [Carfentrazone-ethyl, carfentrazone-ethyl] was tested, and the “Effect in % (leaf abscission)” value (Table 3.1 carfentrazone-ethyl trial, dose 25 g/ha, 10 days) was 0%, the “Effect in % (leaf abscission)” value (Table 3.1 carfentrazone-ethyl trial, dose 25 g/ha, 20 days) was 5% and the “Effect in % (leaf abscission)” value (Table 3.2 carfentrazone-ethyl trial, dose 1.5 g/ha, 6 days) was 29%. For the same compound, the “Effect in % (leaf abscission)” value (Table 3.2 carfentrazone-ethyl trial, dose 1.5 g/ha, 9 days) was 29%.

pyraflufen-ethyl was tested, and the “Effect in % (leaf abscission)” value (Table 2 pyraflufen-ethyl trial, dose 1 g/ha, 3 days) was 0%, the “Effect in % (leaf abscission)” value (Table 2 pyraflufen-ethyl trial, dose 1 g/ha, 5 days) was 0% and the “Effect in % (leaf abscission)” value (Table 2 pyraflufen-ethyl trial, dose 2 g/ha, 3 days) was 0%. The “Effect in % (leaf abscission)” value (Table 2 pyraflufen-ethyl trial, dose 2 g/ha, 5 days) was 0%.
